{"source": "patent US10022376B2", "about": "(Pfizer Inc., priority 2014, dated 2018)", "system": "rhIFNγ stimulated STAT-3 phosphorylation in the A549 human epithelial cell line", "assay": "A549 Cell Assay: Inhibition of pSTAT3", "format": "cell-based", "conditions": "Homo sapiens; A549 cells", "method": "A549 Cell Assay: Inhibition of pSTAT3\nAn assay measuring the efficacy of JAK inhibitors on the functional response of recombinant human interferon γ (rhIFNγ) stimulated STAT-3 phosphorylation in the A549 human epithelial cell line.\nA549 cells (ATCC #CCL-185), were plated at 30,000 cells/well in 96 well flat bottomed tissue culture plates (BD#353072) in 200 μL of growth medium (DMEM, Pfizer media prep, with 10% Fetal Bovine Serum, Sigma #F4135, 2 mM L-Glutamine, Pfizer media prep, 100 U/mL penicillin, Pfizer media prep, and 200 μg/ml streptomycin, Pfizer media prep), and cultured at 37° C., 5% CO2 incubator for 18 hours. Growth medium was removed by vacuum aspiration (V&P Scientific #vp187 bp-60), and 90 μL of pre-warmed assay medium (DMEM with 0.2% BSA, Miltenyi #130-091-376) was added to each well and incubated for 15 minutes at 37° C. 10 μL of vehicle control or test compound (final concentration range of 0.3 nM to 10 μM with 0.1% DMSO) was added to the cells. Plates were incubated at 37° C. for 1 hour. After compound incubation, 10 μL of 220 ng/mL recombinant human IFNγ (R&D Systems #285-IF, final rhIFNγ concentration of 20 ng/mL) was added to the cells and plates were incubated for 30 minutes at 37° C. Wells containing A549 cells, medium with 0.1% DMSO and no rhIFNγ were used as background controls. After rhIFNγ stimulation, media was aspirated from each well and 35 μL/well of iced-cold MSD lysis buffer containing protease and phosphatase inhibitors from Phospho-STAT3 Tyr705 assay kit (Meso-Scale Discovery #K150DID) was added to each well. Plates were incubated at 4° C. with shaking for 30 minutes. Cell lysates were assayed following the MSD Phospho-STAT3 Tyr705 assay kit protocol to detect pSTAT3.\nData were collected and transformed into percent inhibition and calculated using the following formula: […]", "data": [{"smiles": "CNC(=O)c1n[nH]c2cc(-c3cc(F)c(O)cc3CC(F)(F)F)nc(NCc3nccnc3N(C)S(=O)(=O)c3ccccc3)c12", "note": "[Example 44, 6-[5-fluoro-4-hydroxy-2-(2,2,2-trifluoroethyl)phenyl]-N-methyl-4-[({3-[methyl(phenylsulfonyl)amino]pyrazin-2-yl}methyl)amino]-1H-pyrazolo[4,3-c]pyridine-3-carboxamide]", "values": [{"measurement": "IC50", "value": 59.7, "unit": "nM"}]}, {"smiles": "CCN(c1nccnc1CNc1nc(-c2cc(F)c(O)cc2CC(F)(F)F)cc2[nH]nc(C(=O)NC)c12)S(C)(=O)=O", "note": "[Example 45, 4-[({3-[ethyl(methylsulfonyl)amino]pyrazin-2-yl}methyl)amino]-6-[5-fluoro-4-hydroxy-2-(2,2,2-trifluoroethyl)phenyl]-N-methyl-1H-pyrazolo[4,3-c]pyridine-3-carboxamide]", "values": [{"measurement": "IC50", "value": 46.5, "unit": "nM"}]}, {"smiles": "CN(c1ccccc1CNc1nc(-c2cc(F)c(O)cc2C2CC2)cc2[nH]nc(C(N)=O)c12)S(C)(=O)=O", "note": "[Example 47, 6-(2-cyclopropyl-5-fluoro-4-hydroxyphenyl)-4-({2-[methyl(methylsulfonyl)amino]benzyl}amino)-1H-pyrazolo[4,3-c]pyridine-3-carboxamide]", "values": [{"measurement": "IC50", "value": 282, "unit": "nM"}]}, {"smiles": "CNC(=O)c1n[nH]c2cc(-c3cc(F)c(O)cc3CC(F)(F)F)nc(NCc3cnccc3N(C)S(C)(=O)=O)c12", "note": "[Example 48, 6-[5-fluoro-4-hydroxy-2-(2,2,2-trifluoroethyl)phenyl]-N-methyl-4-[({4-[methyl(methylsulfonyl)amino]pyridin-3-yl}methyl)amino]-1H-pyrazolo[4,3-c]pyridine-3-carboxamide]", "values": [{"measurement": "IC50", "value": "> 10000", "unit": "nM"}]}, {"smiles": "CNC(=O)c1n[nH]c2cc(-c3cc(F)c(O)cc3C3CC3)nc(NCc3cccnc3N(C)S(C)(=O)=O)c12", "note": "[Example 49, 6-(2-cyclopropyl-5-fluoro-4-hydroxyphenyl)-N-methyl-4-[({2-[methyl(methylsulfonyl)amino]pyridin-3-yl}methyl)amino]-1H-pyrazolo[4,3-c]pyridine-3-carboxamide]", "values": [{"measurement": "IC50", "value": 385, "unit": "nM"}]}, {"smiles": "CNC(=O)c1n[nH]c2cc(-c3cc(F)c(O)cc3CC(F)(F)F)nc(NCc3nccnc3N(C)S(C)(=O)=O)c12", "note": "[Example 51, 6-[5-fluoro-4-hydroxy-2-(2,2,2-trifluoroethyl)phenyl]-N-methyl-4-[({3-[methyl(methylsulfonyl)amino]pyrazin-2-yl}methyl)amino]-1H-pyrazolo[4,3-c]pyridine-3-carboxamide]", "values": [{"measurement": "IC50", "value": 182, "unit": "nM"}]}, {"smiles": "CCN(c1ncccc1CNc1nc(-c2cc(F)c(O)cc2CC(F)(F)F)cc2[nH]nc(C(N)=O)c12)S(C)(=O)=O", "note": "[Example 52, 4-[({2-[ethyl(methylsulfonyl)amino]pyridin-3-yl}methyl)amino]-6-[5-fluoro-4-hydroxy-2-(2,2,2-trifluoroethyl)phenyl]-1H-pyrazolo[4,3-c]pyridine-3-carboxamide]", "values": [{"measurement": "IC50", "value": 74.3, "unit": "nM"}]}, {"smiles": "CNC(=O)c1n[nH]c2cc(-c3cc(F)c(O)cc3CC(F)(F)F)nc(NCc3cccnc3N(C)S(C)(=O)=O)c12", "note": "[Example 53, 6-[5-fluoro-4-hydroxy-2-(2,2,2-trifluoroethyl)phenyl]-N-methyl-4-[({2-[methyl(methylsulfonyl)amino]pyridin-3-yl}methyl)amino]-1H-pyrazolo[4,3-c]pyridine-3-carboxamide]", "values": [{"measurement": "IC50", "value": 21.3, "unit": "nM"}]}, {"smiles": "CNC(=O)c1n[nH]c2cc(-c3cc(F)c(O)cc3CC(F)(F)F)nc(NCc3ncccc3N(C)S(C)(=O)=O)c12", "note": "[Example 55, 6-[5-Fluoro-4-hydroxy-2-(2,2,2-trifluoroethyl)phenyl]-N-methyl-4-[({3-[methyl(methylsulfonyl)amino]pyridin-2-yl}methyl)amino]-1H-pyrazolo[4,3-c]pyridine-3-carboxamide]", "values": [{"measurement": "IC50", "value": 156, "unit": "nM"}]}, {"smiles": "CNC(=O)c1n[nH]c2cc(-c3cc(F)c(O)cc3CC(F)(F)F)nc(NCc3ccccc3N(C)S(=O)(=O)c3cn[nH]c3)c12", "note": "[Example 58, 6-(5-fluoro-4-hydroxy-2-(2,2,2-trifluoroethyl)phenyl)-N-methyl-4-((2-(N-methyl-1H-pyrazole-4-sulfonamido)benzyl)amino)-1H-pyrazolo[4,3-c]pyridine-3-carboxamide]", "values": [{"measurement": "IC50", "value": 174, "unit": "nM"}]}, {"smiles": "CNC(=O)c1n[nH]c2cc(-c3cc(F)c(O)cc3CC(F)(F)F)nc(NCc3ccccc3N(C)S(=O)(=O)CCOC)c12", "note": "[Example 60, 6-[5-fluoro-4-hydroxy-2-(2,2,2-trifluoroethyl)phenyl]-4-[(2-{[(2-methoxyethyl)sulfonyl](methyl)amino}benzyl)amino]-N-methyl-1H-pyrazolo[4,3-c]pyridine-3-carboxamide]", "values": [{"measurement": "IC50", "value": 34.4, "unit": "nM"}]}, {"smiles": "CN(c1ccccc1CNc1nc(-c2cc(F)c(O)cc2CC(F)(F)F)cc2[nH]nc(C(N)=O)c12)S(=O)(=O)c1cccnc1", "note": "[Example 61, 6-[5-fluoro-4-hydroxy-2-(2,2,2-trifluoroethyl)phenyl]-4-({2-[methyl(pyridin-3-ylsulfonyl)amino]benzyl}amino)-1H-pyrazolo[4,3-c]pyridine-3-carboxamide]", "values": [{"measurement": "IC50", "value": 71.2, "unit": "nM"}]}, {"smiles": "CN(c1ncccc1CNc1nc(-c2cc(F)c(O)cc2CC(F)(F)F)cc2[nH]nc(C(N)=O)c12)S(C)(=O)=O", "note": "[Example 62, 6-[5-fluoro-4-hydroxy-2-(2,2,2-trifluoroethyl)phenyl]-4-[({2-[methyl(methylsulfonyl)amino]pyridin-3-yl}methyl)amino]-1H-pyrazolo[4,3-c]pyridine-3-carboxamide]", "values": [{"measurement": "IC50", "value": 71.8, "unit": "nM"}]}, {"smiles": "CCN(c1ncccc1CNc1nc(-c2cc(F)c(O)cc2CC(F)(F)F)cc2[nH]nc(C(=O)NC)c12)S(C)(=O)=O", "note": "[Example 63, 4-[({2-[ethyl(methylsulfonyl)amino]pyridin-3-yl}methyl)amino]-6-[5-fluoro-4-hydroxy-2-(2,2,2-trifluoroethyl)phenyl]-N-methyl-1H-pyrazolo[4,3-c]pyridine-3-carboxamide]", "values": [{"measurement": "IC50", "value": 14.6, "unit": "nM"}]}, {"smiles": "CNC(=O)c1n[nH]c2cc(-c3cc(F)c(O)cc3CC(F)(F)F)nc(NCc3ccccc3CS(N)(=O)=O)c12", "note": "[Example 64, 6-[5-fluoro-4-hydroxy-2-(2,2,2-trifluoroethyl)phenyl]-N-methyl-4-{[2-(sulfamoylmethyl)benzyl]amino}-1H-pyrazolo[4,3-c]pyridine-3-carboxamide]", "values": [{"measurement": "IC50", "value": 213, "unit": "nM"}]}, {"smiles": "CN(c1ccccc1CNc1nc(-c2cc(F)c(O)cc2CC(F)(F)F)cc2[nH]nc(C(N)=O)c12)S(=O)(=O)c1ccc(N2CCOCC2)nc1", "note": "[Example 65, 6-[5-fluoro-4-hydroxy-2-(2,2,2-trifluoroethyl)phenyl]-4-{[2-(methyl{[6-(morpholin-4-yl)pyridin-3-yl]sulfonyl}amino)benzyl]amino}-1H-pyrazolo[4,3-c]pyridine-3-carboxamide]", "values": [{"measurement": "IC50", "value": 161, "unit": "nM"}]}, {"smiles": "CN(c1ccccc1CNc1nc(-c2cc(F)c(O)cc2CC(F)(F)F)cc2[nH]nc(C(N)=O)c12)S(=O)(=O)CCCN1CCOCC1", "note": "[Example 66, 6-[5-fluoro-4-hydroxy-2-(2,2,2-trifluoroethyl)phenyl]-4-{[2-(methyl{[3-(morpholin-4-yl)propyl]sulfonyl}amino)benzyl]amino}-1H-pyrazolo[4,3-c]pyridine-3-carboxamide]", "values": [{"measurement": "IC50", "value": 221, "unit": "nM"}]}, {"smiles": "CNC(=O)c1n[nH]c2cc(-c3cc(F)c(O)cc3CC(F)(F)F)nc(NCc3cc(C)cnc3N(C)S(C)(=O)=O)c12", "note": "[Example 67, 6-[5-fluoro-4-hydroxy-2-(2,2,2-trifluoroethyl)phenyl]-N-methyl-4-[({5-methyl-2-[methyl(methylsulfonyl)amino]pyridin-3-yl}methyl)amino]-1H-pyrazolo[4,3-c]pyridine-3-carboxamide]", "values": [{"measurement": "IC50", "value": 104, "unit": "nM"}]}]}
